Experimental data published in ChEMBL document CHEMBL6127068, “Discovery of novel nitrofuran PROTAC-like compounds as dual inhibitors and degraders targeting STING” (Eur J Med Chem, 2024).
Values belong to the compound of their own block, whether it stands above or below them. Active and inactive are the calls of the source. No cut-off for these calls is given here.

How the values were obtained:
[1] = target: T1, Protein cereblon/Stimulator of interferon genes protein (Homo sapiens, UniProt Q96SW2+Q86WV6); test: PROTAC activity at CRBN/STING in human THP-1 cells assessed as induction of STING degradation at 10 uM incubated for 24 hrs by western blot analysis; type: cell-based
[2] = Cytotoxicity against HUVEC assessed as reduction in cell viability at 3.3 uM incubated for 48 hrs by MTT assay; type: toxicity, cell-based; conditions: human, HUVEC cells, read-out: INH
[3] = Cytotoxicity against HEK293T cells assessed as reduction in cell viability at 3.3 uM incubated for 48 hrs by MTT assay; type: toxicity, cell-based, HEK-293T; conditions: human, read-out: INH
[4] = target: T1, Protein cereblon/Stimulator of interferon genes protein; test: PROTAC activity at CRBN/STING in human THP-1 cells assessed as induction of STING degradation at 10 uM pretreated with proteasome inhibitor, MG132 for 1 hr followed by incubation with compound for 24 hrs by western blot analysis; type: cell-based
[5] = target: T2, von Hippel-Lindau disease tumor suppressor/Stimulator of interferon genes protein (Homo sapiens, UniProt P40337+Q86WV6); test: PROTAC activity at VHL/STING (unknown origin) assessed as induction of protein degradation; type: protein assay
Target sequence in this assay (P40337 whole entry): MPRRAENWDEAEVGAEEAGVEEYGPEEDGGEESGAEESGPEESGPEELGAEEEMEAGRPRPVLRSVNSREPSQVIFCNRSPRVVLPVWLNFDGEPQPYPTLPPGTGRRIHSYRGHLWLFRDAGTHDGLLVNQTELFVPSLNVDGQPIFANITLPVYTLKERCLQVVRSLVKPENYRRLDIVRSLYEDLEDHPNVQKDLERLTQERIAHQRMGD
Target sequence in this assay (Q86WV6 whole entry): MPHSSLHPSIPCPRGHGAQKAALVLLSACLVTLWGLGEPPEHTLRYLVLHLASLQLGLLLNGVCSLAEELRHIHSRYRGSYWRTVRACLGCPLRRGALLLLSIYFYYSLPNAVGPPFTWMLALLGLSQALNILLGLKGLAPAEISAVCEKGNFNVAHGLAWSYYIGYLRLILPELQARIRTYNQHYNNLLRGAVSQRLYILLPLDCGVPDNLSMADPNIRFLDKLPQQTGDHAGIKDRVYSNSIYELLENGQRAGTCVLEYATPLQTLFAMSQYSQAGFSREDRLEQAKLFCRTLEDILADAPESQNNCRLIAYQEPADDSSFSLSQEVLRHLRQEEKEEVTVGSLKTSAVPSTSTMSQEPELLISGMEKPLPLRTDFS

[6] = target: T2, von Hippel-Lindau disease tumor suppressor/Stimulator of interferon genes protein; test: PROTAC activity at VHL/STING (unknown origin) assessed as induction of protein degradation relative to control; type: protein assay
Target sequence in this assay (P40337 whole entry, looked up): as the sequence (P40337 whole entry) above
Target sequence in this assay (Q86WV6 whole entry, looked up): as the sequence (Q86WV6 whole entry) above

T1 sequence (Q86WV6 whole entry, looked up): as the sequence (Q86WV6 whole entry) above
T1 sequence (Q96SW2 whole entry, looked up): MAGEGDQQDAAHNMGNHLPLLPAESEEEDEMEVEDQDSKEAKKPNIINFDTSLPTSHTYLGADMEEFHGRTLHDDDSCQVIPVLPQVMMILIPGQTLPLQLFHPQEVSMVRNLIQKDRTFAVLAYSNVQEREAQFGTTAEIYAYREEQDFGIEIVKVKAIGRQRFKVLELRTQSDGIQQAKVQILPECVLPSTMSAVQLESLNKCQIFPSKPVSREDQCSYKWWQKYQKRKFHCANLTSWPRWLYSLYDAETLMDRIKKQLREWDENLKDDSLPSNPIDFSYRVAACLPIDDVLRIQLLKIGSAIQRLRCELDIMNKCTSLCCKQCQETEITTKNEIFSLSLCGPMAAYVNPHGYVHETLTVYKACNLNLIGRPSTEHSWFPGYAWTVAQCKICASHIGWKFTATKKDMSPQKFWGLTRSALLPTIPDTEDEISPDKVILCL

SMILES: O=C1CCC(N2C(=O)c3cccc(OC(=O)CCCc4cn(CCCCCC(=O)Oc5ccc(NC(=O)c6ccc([N+](=O)[O-])o6)cc5)nn4)c3C2=O)C(=O)N1 (stereo not drawn)
Activity [1]: 71%

SMILES: CCCCc1ccc(NC(=O)c2ccc([N+](=O)[O-])o2)cc1
cytotoxicity at 48 h, 3.3 µM [2]: 68.2%
cytotoxicity at 48 h, 3.3 µM [3]: 80.1%

SMILES: CN1C(=O)CCC(N2C(=O)c3cccc(OCc4cn(CCCCCC(=O)OCCc5ccc(NC(=O)c6ccc([N+](=O)[O-])o6)cc5)nn4)c3C2=O)C1=O (stereo not drawn)
Activity [4]: Active

SMILES: Cc1ncsc1-c1ccc([C@H](C)NC(=O)[C@@H]2C[C@@H](O)CN2C(=O)[C@@H](NC(=O)CCC(=O)NCCCNC(=O)c2cccc(S(=O)(=O)n3cc(C(=O)NCCCCCC(=O)Oc4ccc(NC(=O)c5ccc(-c6ccccc6)cc5)cc4NS(=O)(=O)c4ccc(F)cc4)ccc3=O)c2)C(C)(C)C)cc1
DC50 [5]: 530 nM
Activity [6]: 56.6%

SMILES: O=C1CCC(N2C(=O)c3ccc(OCc4cn(CCCC(=O)OCCc5ccc(NC(=O)c6ccc([N+](=O)[O-])o6)cc5)nn4)cc3C2=O)C(=O)N1 (stereo not drawn)
Activity [1]: 76%

Second part, the compound after the results:

Activity [1]: inactive
SMILES: O=C1CCC(N2C(=O)c3cccc(OCc4cn(CCCCCC(=O)Oc5ccc(NC(=O)c6ccc([N+](=O)[O-])o6)cc5)nn4)c3C2=O)C(=O)N1 (stereo not drawn)

Activity [1]: Active
SMILES: O=C1CCC(N2C(=O)c3cccc(OCc4cn(CCCC(=O)OCc5ccc(NC(=O)c6ccc([N+](=O)[O-])o6)cc5)nn4)c3C2=O)C(=O)N1 (stereo not drawn)

Activity [1]: Active
SMILES: O=C1CCC(N2C(=O)c3ccc(OCc4cn(CC(=O)OCCc5ccc(NC(=O)c6ccc([N+](=O)[O-])o6)cc5)nn4)cc3C2=O)C(=O)N1 (stereo not drawn)

Activity [1]: Active
SMILES: O=C1CCC(N2C(=O)c3cccc(OCc4cn(CCCC(=O)Oc5ccc(NC(=O)c6ccc([N+](=O)[O-])o6)cc5)nn4)c3C2=O)C(=O)N1 (stereo not drawn)

Activity [1]: Active
SMILES: O=C1CCC(N2C(=O)c3cccc(OCc4cn(CCCCCC(=O)OCc5ccc(NC(=O)c6ccc([N+](=O)[O-])o6)cc5)nn4)c3C2=O)C(=O)N1 (stereo not drawn)

Activity [1]: Active
SMILES: O=C1CCC(N2C(=O)c3cccc(OCc4cn(CC(=O)OCc5ccc(NC(=O)c6ccc([N+](=O)[O-])o6)cc5)nn4)c3C2=O)C(=O)N1 (stereo not drawn)
